Inhibition data for 7 compounds are collected here from EP4786487A1, “PEPTIDE” (Peptidream Inc, priority 2023, dated 2025).

Where two headings read alike, the source gives them in different places. Starred links: 1 amine or outer side, 2 acyl side, 3 side chain; linkers in the order of their positions; H or OH if unused. Positions of bridges follow the written chain, without caps; N, C: chain ends. Non-standard residues stand in square brackets, D forms with d. Residues, ends and D or L forms follow the SMILES beside them. Phe(3-OCH2COOH) = N[C@@H](Cc1cccc(OCC(=O)O)c1)C(=O)O; Phe(4-COOH) = N[C@@H](Cc1ccc(C(=O)O)cc1)C(=O)O; Gly(N(CH2)3COOH) = O=C(O)CCCNCC(=O)O; X1 = CCCCCCC[C@H](N[*:1])C(=O)[*:2]; NMeF = CN[C@@H](Cc1ccccc1)C(=O)O; d(hCys) = N[C@H](CCS)C(=O)O; NMeC = CN[C@@H](CS)C(=O)O; dNMeC = CN[C@H](CS)C(=O)O; hCys = N[C@@H](CCS)C(=O)O; NMeA = CN[C@@H](C)C(=O)O; Sar = CNCC(=O)O

In one assay the target is T1, Myostatin (Homo sapiens, UniProt O14793).
T1 construct: active myostatin (also called mature myostatin) is a homodimer consisting of two C-terminal growth factor domains; purchased R&D systems 788-G8/CF
T1 sequence (O14793 267-375): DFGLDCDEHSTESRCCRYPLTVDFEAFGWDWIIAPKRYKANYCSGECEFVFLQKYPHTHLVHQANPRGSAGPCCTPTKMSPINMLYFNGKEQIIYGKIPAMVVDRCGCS
In words: HepG2 reporter gene assay, Evaluation Procedure (2): 2-concentrations assay, myostatin inhibition. Particulars: HepG2. Format: cell-based. The procedure, abridged:
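HepG2 cells (HB-8065, ATCC) carrying the transfected pGL3(CAGA)12-luc reporter plasmid were treated with myostatin (788-G8/CF, R&D systems) at a final concentration of 10 ng/mL plus peptide and incubated at 37°C, 5% CO2 for 20 to 24 hours. Luminescence was read after adding PBS mixed 1:1 with One-Glo substrate, and inhibition rate was calculated.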
A general note: Reporter assays use an easily measured gene product as a stand-in for the process of interest.

The target of a further assay is T2, GDF-11 (Homo sapiens, UniProt O95390).
T2 construct: purchased R&D systems 1958-GD-G8/CF
T2 sequence (O95390 299-407): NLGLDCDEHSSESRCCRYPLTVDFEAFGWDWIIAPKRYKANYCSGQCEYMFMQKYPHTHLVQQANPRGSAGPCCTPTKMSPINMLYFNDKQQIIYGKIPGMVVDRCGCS
The assay is described as follows: HepG2 reporter gene assay, Evaluation Procedure (2): 2-concentrations assay, GDF-11 inhibition. Type of assay: cell-based. The settings on record: for inhibition: read-out: inhibition rate (GDF-11 inhibition assay). Summed up: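 HepG2 cells carrying the transfected pGL3(CAGA)12-luc reporter, a pGL3 vector with luciferase placed downstream of 12 CAGA repeats, were stimulated with GDF-11 at a final 10 ng/mL together with test peptide. Blank wells received no GDF-11 and no peptide. Plates were incubated 20 to 24 hours at 37°C with 5% CO2. Luminescence from One-Glo substrate was read to calculate percent inhibition.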

The mark [1] stands for this setting: Table 7-3/7-4, myostatin 10 ng/mL, peptide at the higher of the 2 concentrations, read-out: inhibition rate (myostatin inhibition assay).
[2] abbreviates: Table 7-3/7-4, myostatin 10 ng/mL, peptide at the lower of the 2 concentrations, read-out: inhibition rate (myostatin inhibition assay).
The mark [3] stands for this setting: HepG2, first GDF-11 column of Table 7-3/7-4, GDF-11 10 ng/mL, peptide at the lower of the 2 concentrations.
[4] abbreviates: HepG2, second GDF-11 column of Table 7-3/7-4, GDF-11 10 ng/mL, peptide at the higher of the 2 concentrations.

Take `CCCCCCC[C@@H]1NC(=O)[C@H](Cc2ccccc2)N(C)C(=O)[C@H](CCCNC(=N)N)NC(=O)[C@H](Cc2ccc(C(=O)O)cc2)NC(=O)[C@H](Cc2cccc(OCC(=O)O)c2)NC(=O)[C@H](C)N(C)C(=O)[C@H]([C@@H](C)CC)NC(=O)[C@H](Cc2ccccc2)N(C)C(=O)[C@H](Cc2ccc(O)cc2)NC(=O)[C@H](Cc2c[nH]c3ccccc23)NC(=O)[C@H](C)NC(=O)CN(CCCC(=O)O)C(=O)CSC[C@H](C(N)=O)N(C)C(=O)[C@H](Cc2ccccc2)N(C)C(=O)[C@H](C)N(C)C1=O` [Myostatin_99_v439] ({CH2CO}-[Gly(N(CH2)3COOH)]AWY[NMeF]I[NMeA][Phe(3-OCH2COOH)][Phe(4-COOH)]R[NMeF][X1][NMeA][NMeF][dNMeC]-NH2; thioether N-15): the inhibition at 0.1 µM on Myostatin (setting [1]) was 100%. Further, the inhibition at 0.03 µM on Myostatin (setting [2]) amounted to 100%. Moreover, the inhibition on GDF-11 (setting [3]) turned out to be 2%; at GDF-11 (setting [4]) it was 36%.
In the case of `CCCCCCC[C@@H]1NC(=O)[C@H](Cc2ccccc2)N(C)C(=O)[C@H](CCCNC(=N)N)NC(=O)[C@H](Cc2ccc(C(=O)O)cc2)NC(=O)[C@H](Cc2cccc(OCC(=O)O)c2)NC(=O)[C@H](C)N(C)C(=O)[C@H]([C@@H](C)CC)NC(=O)[C@H](Cc2ccccc2)N(C)C(=O)[C@H](Cc2ccc(O)cc2)NC(=O)[C@H](Cc2c[nH]c3ccccc23)NC(=O)[C@H](C)NC(=O)CN(CCCC(=O)O)C(=O)CSC[C@@H](C(N)=O)N(C)C(=O)[C@H](Cc2ccccc2)N(C)C(=O)[C@H](C)N(C)C1=O` [Myostatin_99_v440] ({CH2CO}-[Gly(N(CH2)3COOH)]AWY[NMeF]I[NMeA][Phe(3-OCH2COOH)][Phe(4-COOH)]R[NMeF][X1][NMeA][NMeF][NMeC]-NH2; thioether N-15), the inhibition at 0.1 µM on Myostatin (setting [1]) is 100%. On Myostatin (setting [2]), the inhibition at 0.03 µM came to 99%. Besides, the values for the inhibition at GDF-11 (setting [3]) and at GDF-11 (setting [4]) were 0% and 9%, respectively.
For `CCCCCCC[C@@H]1NC(=O)[C@H](Cc2ccccc2)N(C)C(=O)[C@H](CCCNC(=N)N)NC(=O)[C@H](Cc2ccc(C(=O)O)cc2)NC(=O)[C@H](Cc2cccc(OCC(=O)O)c2)NC(=O)[C@H](C)N(C)C(=O)[C@H]([C@@H](C)CC)NC(=O)[C@H](Cc2ccccc2)N(C)C(=O)[C@H](Cc2ccc(O)cc2)NC(=O)[C@H](Cc2c[nH]c3ccccc23)NC(=O)[C@H](C)NC(=O)CN(CCCC(=O)O)C(=O)CSCC[C@H](C(=O)O)NC(=O)[C@H](Cc2ccccc2)N(C)C(=O)[C@H](C)N(C)C1=O` [Myostatin_99_v441] ({CH2CO}-[Gly(N(CH2)3COOH)]AWY[NMeF]I[NMeA][Phe(3-OCH2COOH)][Phe(4-COOH)]R[NMeF][X1][NMeA][NMeF][d(hCys)]-OH; thioether N-15), in that order: 100%, 100%, 0% and 0%.
With `CCCCCCC[C@@H]1NC(=O)[C@H](Cc2ccccc2)N(C)C(=O)[C@H](CCCNC(=N)N)NC(=O)[C@H](Cc2ccc(C(=O)O)cc2)NC(=O)[C@H](Cc2cccc(OCC(=O)O)c2)NC(=O)[C@H](C)N(C)C(=O)[C@H]([C@@H](C)CC)NC(=O)[C@H](Cc2ccccc2)N(C)C(=O)[C@H](Cc2ccc(O)cc2)NC(=O)[C@H](Cc2c[nH]c3ccccc23)NC(=O)[C@H](C)NC(=O)CN(CCCC(=O)O)C(=O)CSCC[C@@H](C(=O)O)NC(=O)[C@H](Cc2ccccc2)N(C)C(=O)[C@H](C)N(C)C1=O` [Myostatin_99_v442] ({CH2CO}-[Gly(N(CH2)3COOH)]AWY[NMeF]I[NMeA][Phe(3-OCH2COOH)][Phe(4-COOH)]R[NMeF][X1][NMeA][NMeF][hCys]-OH; thioether N-15), at Myostatin (setting [1]), the inhibition at 0.1 µM stood at 100%. For the same compound, at Myostatin (setting [2]), the inhibition at 0.03 µM came out at 100%. Besides, the inhibition on GDF-11 (setting [3]) and on GDF-11 (setting [4]) was 0% throughout.
As for `CCCCCCC[C@@H]1NC(=O)[C@H](Cc2ccccc2)N(C)C(=O)[C@H](CCCNC(=N)N)NC(=O)[C@H](Cc2ccc(C(=O)O)cc2)NC(=O)[C@H](Cc2cccc(OCC(=O)O)c2)NC(=O)[C@H](C)N(C)C(=O)[C@H]([C@@H](C)CC)NC(=O)[C@H](Cc2ccccc2)N(C)C(=O)[C@H](Cc2ccc(O)cc2)NC(=O)[C@H](Cc2c[nH]c3ccccc23)NC(=O)[C@H](C)NC(=O)CN(CCCC(=O)O)C(=O)[C@H](C)N(C)C(=O)[C@@H](C)NC(=O)[C@H](Cc2ccccc2)N(C)C(=O)[C@H](C)N(C)C1=O` [Myostatin_99_v450] (cyclo(AWY[NMeF]I[NMeA][Phe(3-OCH2COOH)][Phe(4-COOH)]R[NMeF][X1][NMeA][NMeF][dA][NMeA][Gly(N(CH2)3COOH)])), the inhibition at 0.1 µM on Myostatin (setting [1]) was found to be 100%. The inhibition at 0.03 µM at Myostatin (setting [2]) was 100%. Moreover, the inhibition at GDF-11 (setting [3]) and at GDF-11 (setting [4]) was 0% in each case.
In the case of `CCCCCCC[C@@H]1NC(=O)[C@H](Cc2ccccc2)N(C)C(=O)[C@H](CCCNC(=N)N)NC(=O)[C@H](Cc2ccc(C(=O)O)cc2)NC(=O)[C@H](Cc2cccc(OCC(=O)O)c2)NC(=O)[C@H](C)N(C)C(=O)[C@H]([C@@H](C)CC)NC(=O)[C@H](Cc2ccccc2)N(C)C(=O)[C@H](Cc2ccc(O)cc2)NC(=O)[C@H](Cc2c[nH]c3ccccc23)NC(=O)[C@H](C)NC(=O)[C@H](C)N(C)C(=O)[C@H](C)N(C)C(=O)CNC(=O)[C@H](Cc2ccccc2)N(C)C(=O)[C@H](C)N(C)C1=O` [Myostatin_99_v455] (cyclo(AWY[NMeF]I[NMeA][Phe(3-OCH2COOH)][Phe(4-COOH)]R[NMeF][X1][NMeA][NMeF]G[NMeA][NMeA])), the inhibition at 0.1 µM at Myostatin (setting [1]) came to 100%. The inhibition at 0.03 µM at Myostatin (setting [2]) was 99%. Besides, the inhibition at GDF-11 (setting [3]) stood at 1%; at GDF-11 (setting [4]), 0%.
With `CC[C@H](C)[C@@H]1NC(=O)[C@H](Cc2ccccc2)N(C)C(=O)[C@H](Cc2ccc(O)cc2)NC(=O)[C@H](Cc2c[nH]c3ccccc23)NC(=O)[C@H](CCCNC(=N)N)NC(=O)[C@H](C)NC(=O)CSC[C@@H](C(N)=O)NC(=O)[C@H](Cc2ccccc2)N(C)C(=O)[C@H](C)N(C)C(=O)[C@H](CC(C)C)NC(=O)[C@H](Cc2ccccc2)N(C)C(=O)[C@H](CCCNC(=N)N)NC(=O)[C@H](Cc2ccc(O)cc2)NC(=O)[C@H](Cc2ccc(O)cc2)NC(=O)CN(C)C1=O` [Myostatin_Myostatin_000099] ({CH2CO}-ARWY[NMeF]I[Sar]YYR[NMeF]L[NMeA][NMeF]C-NH2; thioether N-15), the inhibition at 0.03 µM at Myostatin (peptide 30nM, Myostatin 10 ng/mL, read-out: Myostatin Inhibition 30nM) was found to be 56%; at GDF-11 (HepG2, peptide 30nM, GDF-11 10 ng/mL, read-out: GDF11 Inhibition 30nM), 0%. Also, the inhibition at 0.1 µM at Myostatin (peptide 100nM, Myostatin 10 ng/mL, read-out: Myostatin Inhibition 100nM) was determined as 87%; at GDF-11 (HepG2, peptide 100nM, GDF-11 10 ng/mL, read-out: GDF11 Inhibition 100nM), 19%.

The term inhibition denotes the percentage by which the read-out fell short of the control.
